Legend:
[1] = Met bis-alkylation (bis-sulfonium staple) with linker c, 1,4-bis(bromomethyl)benzene (1.2 equiv), 1% HCOOH (pH ~3), 24 h; conditions: the molecule shown is the open-chain precursor, MeCN/H2O 30:70 (SI: 1:3) + 1% HCOOH, small amount of DMF, 10.0 mM, 25.0 °C
[2] = Met bis-alkylation (bis-sulfonium staple) with linker a, 1,3-bis(bromomethyl)benzene (1.2 equiv), 1% HCOOH (pH ~3), 24 h; conditions: the molecule shown is the open-chain precursor, MeCN/H2O 30:70 (SI: 1:3) + 1% HCOOH, small amount of DMF, 10.0 mM, 25.0 °C
[3] = Met bis-alkylation (bis-sulfonium staple) of one unprotected peptide with different dihalide linkers (1.2 equiv), 1% HCOOH (pH ~3), 24 h; conditions: the molecule shown is the open-chain precursor, MeCN/H2O 30:70 (SI: 1:3) + 1% HCOOH, small amount of DMF, 10.0 mM, 25.0 °C
HeLa cells = test: Flow cytometry cellular uptake in HeLa cells; type: cell-based; conditions: 10% fetal bovine serum, 5, 10, 20 µM, Fig. S5
[4] = Dealkylation of cyclic peptides with 2-mercaptopyridine (regeneration of linear peptide); type: physicochemical; conditions: chemical stability under reductive conditions; 2-mercaptopyridine (10 equiv., 10 mM) in PBS pH 7.4, 37 °C, different time points, HPLC / LC-MS; Fig. 3A, B
Protocol: in linear gradient mixtures.
1. Preparation of alkylated sulfonium peptides[1]
The alkylated reagent (1.2 equiv)
Then the solution was purified by reversed […]
peptide can be gradually regenerated to the linear peptide.
To 100 µL of each solution 1 µL […]
linear gradient from 10% to 70% acetonitrile over 15min. […]
quantified by LC/MS-based peak detection at 254nm.
4. Flow Cytometry Analysis
T47D cells were seeded in
37°C), washed with PBS, and resuspended in PBS. […]
cytometer (Becton Dickinson) and CellQuest Pro (or CFlow plus).

Compound: CSCC[C@H](NC(=O)[C@H](CC(C)C)NC(=O)[C@H](CS)NC(=O)[C@H](CC[S+](C)Cc1ccc(CBr)cc1)NC(=O)[C@H](Cc1c[nH]c2ccccc12)NC(C)=O)C(=O)N[C@@H](C)C(N)=O (stereo partly drawn) [Ac-Trp-Met-Cys-Leu-Met-Ala-NH2]
- ring closure, conversion by HPLC ([1]; 22-membered ring): > 95%

Compound: CSCC[C@H](NC(=O)[C@H](Cc1c[nH]cn1)NC(=O)[C@@H]1CCCN1C(=O)[C@H](CC[S+](C)Cc1cccc(CBr)c1)NC(=O)[C@H](Cc1c[nH]c2ccccc12)NC(C)=O)C(=O)N[C@@H](C)C(N)=O (stereo partly drawn) [Ac-Trp-Met-Pro-His-Met-Ala-NH2]
- ring closure, conversion by HPLC ([2]; 21-membered ring): 84%

Compound: CSCC[C@H](NC(=O)[C@H](CC(=O)O)NC(=O)[C@@H](NC(=O)[C@H](Cc1c[nH]cn1)NC(=O)[C@H](CC[S+](C)Cc1cccc(CBr)c1)NC(=O)[C@H](Cc1c[nH]c2ccccc12)NC(C)=O)C(C)C)C(=O)N[C@@H](C)C(N)=O (stereo partly drawn) [Ac-Trp-Met-His-Val-Asp-Met-Ala-NH2]
- ring closure, conversion by HPLC ([2]; 24-membered ring): 73%

Compound: CSCC[C@H](NC(=O)[C@H](CC(=O)O)NC(=O)CNC(=O)[C@H](CCCNC(=N)N)NC(=O)[C@H](CC[S+](C)CCCCBr)NC(=O)[C@H](Cc1c[nH]c2ccccc12)NC(C)=O)C(N)=O (stereo partly drawn) [Ac-Trp-Met-Arg-Gly-Asp-Met-NH2 + 1,4-dibromobutane]
- ring closure, conversion by HPLC ([3]; 23-membered ring): 0%

Compound: FITC-βA-(cyclo-i)-MRRRM-NH2 (sidechain bridge or staple) [11i, peptide 11 cyclized using linker i]
- cellular uptake efficiency (flow cytometry) in the presence of serum (HeLa cells): same tendency as in the absence of serum

Compound: CSCC[C@H](NC(=O)[C@H](CC(=O)O)NC(=O)CNC(=O)[C@H](CCCNC(=N)N)NC(=O)[C@H](CC[S+](C)CCCCI)NC(=O)[C@H](Cc1c[nH]c2ccccc12)NC(C)=O)C(N)=O (stereo partly drawn) [Ac-Trp-Met-Arg-Gly-Asp-Met-NH2 + 1,4-diiodobutane]
- ring closure, conversion by HPLC ([3]; 23-membered ring): 0%

Compound: CSCC[C@H](NC(=O)[C@H](CC(C)C)NC(=O)[C@H](CS)NC(=O)[C@H](CC[S+](C)Cc1cccc(CBr)c1)NC(=O)[C@H](Cc1c[nH]c2ccccc12)NC(C)=O)C(=O)N[C@@H](C)C(N)=O (stereo partly drawn) [Ac-Trp-Met-Cys-Leu-Met-Ala-NH2]
- ring closure, conversion by HPLC ([2]; 21-membered ring): > 95%

Compound: Ac-W-(cyclo-c)-MRGDM-NH2 (sidechain bridge or staple) [1c, peptide 1 Met bis-alkylated with linker c]
- regeneration of the parental linear peptide 1 (dealkylation) [4]: time-dependent regeneration of the parental peptide 1

Compound: CSCC[C@H](NC(=O)[C@H](CC(=O)O)NC(=O)CNC(=O)[C@H](CCCNC(=N)N)NC(=O)[C@H](CC[S+](C)Cc1ccccc1CBr)NC(=O)[C@H](Cc1c[nH]c2ccccc12)NC(C)=O)C(N)=O (stereo partly drawn) [Ac-Trp-Met-Arg-Gly-Asp-Met-NH2 + 1,2-bis(bromomethyl)benzene]
- ring closure, conversion by HPLC ([3]; 23-membered ring): 58%

Compound: CSCC[C@H](NC(=O)[C@H](CC(=O)O)NC(=O)CNC(=O)[C@H](CCCNC(=N)N)NC(=O)[C@H](CC[S+](C)C/C=C/CBr)NC(=O)[C@H](Cc1c[nH]c2ccccc12)NC(C)=O)C(N)=O (stereo partly drawn) [Ac-Trp-Met-Arg-Gly-Asp-Met-NH2 + (E)-1,4-dibromobut-2-ene]
- ring closure, conversion by HPLC ([3]; 23-membered ring): 93%

Compound: CSCC[C@H](NC(=O)[C@H](CC(=O)O)NC(=O)CNC(=O)[C@H](CCCNC(=N)N)NC(=O)[C@H](CC[S+](C)Cc1ccc(-c2ccc(CBr)cc2)cc1)NC(=O)[C@H](Cc1c[nH]c2ccccc12)NC(C)=O)C(N)=O (some centres unmarked)
- ring closure, conversion by HPLC ([3]; 29-membered ring): 60%

Compound: CSCC[C@H](NC(=O)[C@H](CC(=O)O)NC(=O)CNC(=O)[C@H](CCCNC(=N)N)NC(=O)[C@H](CC[S+](C)Cc1cccc(CBr)c1)NC(=O)[C@H](Cc1c[nH]c2ccccc12)NC(C)=O)C(N)=O (stereo partly drawn) [Ac-Trp-Met-Arg-Gly-Asp-Met-NH2 + 1,3-bis(bromomethyl)benzene]
- ring closure, conversion by HPLC ([3]; 24-membered ring): 88%

Compound: CSCC[C@H](NC(=O)[C@H](CC(=O)O)NC(=O)[C@@H](NC(=O)[C@H](Cc1c[nH]cn1)NC(=O)[C@H](CC[S+](C)Cc1ccc(CBr)cc1)NC(=O)[C@H](Cc1c[nH]c2ccccc12)NC(C)=O)C(C)C)C(=O)N[C@@H](C)C(N)=O (stereo partly drawn) [Ac-Trp-Met-His-Val-Asp-Met-Ala-NH2]
- ring closure, conversion by HPLC ([1]; 25-membered ring): 85%

Compound: CC[C@H](C)[C@H](NC(=O)[C@H](CCCCN)NC(=O)[C@H](CC[S+](C)Cc1ccc(CBr)cc1)NC(=O)[C@H](Cc1c[nH]c2ccccc12)NC(C)=O)C(=O)N[C@@H](CCC(=O)O)C(=O)N[C@@H](CCSC)C(=O)N[C@@H](C)C(N)=O (stereo partly drawn) [Ac-Trp-Met-Lys-Ile-Glu-Met-Ala-NH2]
- ring closure, conversion by HPLC ([1]; 25-membered ring): 83%

Compound: CSCC[C@H](NC(=O)[C@H](CC(=O)O)NC(=O)CNC(=O)[C@H](CCCNC(=N)N)NC(=O)[C@H](CC[S+](C)CC(=O)C(=O)CBr)NC(=O)[C@H](Cc1c[nH]c2ccccc12)NC(C)=O)C(N)=O (stereo partly drawn) [Ac-Trp-Met-Arg-Gly-Asp-Met-NH2 + 1,4-dibromobutane-2,3-dione]
- ring closure, conversion by HPLC ([3]; 23-membered ring): 64%

Compound: CSCC[C@H](NC(=O)CNC(=O)[C@H](Cc1ccc(O)cc1)NC(=O)[C@@H]1CCCN1C(=O)[C@H](CC[S+](C)Cc1ccc(CBr)cc1)NC(=O)[C@H](Cc1c[nH]c2ccccc12)NC(C)=O)C(=O)N[C@@H](C)C(N)=O (stereo partly drawn) [Ac-Trp-Met-Pro-Tyr-Gly-Met-Ala-NH2]
- ring closure, conversion by HPLC ([1]; 25-membered ring): 81%

Compound: CSCC[C@H](NC(=O)[C@H](CC(=O)O)NC(=O)CNC(=O)[C@H](CCCNC(=N)N)NC(=O)[C@H](CC(=O)O)NC(=O)CNC(=O)[C@H](CCCNC(=N)N)NC(=O)[C@H](CC[S+](C)Cc1ccc(CBr)cc1)NC(=O)[C@H](Cc1c[nH]c2ccccc12)NC(C)=O)C(N)=O (stereo partly drawn) [Ac-Trp-Met-Arg-Gly-Asp-Arg-Gly-Asp-Met-NH2]
- ring closure, conversion by HPLC ([1]; 34-membered ring): 54%

Compound: CSCC[C@H](NC(=O)CNC(=O)[C@H](Cc1ccc(O)cc1)NC(=O)[C@@H]1CCCN1C(=O)[C@H](CC[S+](C)Cc1cccc(CBr)c1)NC(=O)[C@H](Cc1c[nH]c2ccccc12)NC(C)=O)C(=O)N[C@@H](C)C(N)=O (stereo partly drawn) [Ac-Trp-Met-Pro-Tyr-Gly-Met-Ala-NH2]
- ring closure, conversion by HPLC ([2]; 24-membered ring): 70%

Compound: CSCC[C@H](NC(=O)[C@H](CCC(=O)O)NC(=O)[C@H](CCCCN)NC(=O)[C@H](CC[S+](C)Cc1ccc(CBr)cc1)NC(=O)[C@H](Cc1c[nH]c2ccccc12)NC(C)=O)C(=O)N[C@@H](C)C(N)=O (stereo partly drawn) [Ac-Trp-Met-Lys-Glu-Met-Ala-NH2]
- ring closure, conversion by HPLC ([1]; 22-membered ring): 73%

Compound: CSCC[C@H](NC(=O)[C@H](CC(=O)O)NC(=O)CNC(=O)[C@H](CCCNC(=N)N)NC(=O)[C@H](CC[S+](C)Cc1ccc(CBr)cc1)NC(=O)[C@H](Cc1c[nH]c2ccccc12)NC(C)=O)C(N)=O (stereo partly drawn) [Ac-Trp-Met-Arg-Gly-Asp-Met-NH2 + 1,4-bis(bromomethyl)benzene]
- ring closure, conversion by HPLC ([3]; 25-membered ring): 49%

Compound: CC[C@H](C)[C@H](NC(=O)[C@H](CCCCN)NC(=O)[C@H](CC[S+](C)Cc1cccc(CBr)c1)NC(=O)[C@H](Cc1c[nH]c2ccccc12)NC(C)=O)C(=O)N[C@@H](CCC(=O)O)C(=O)N[C@@H](CCSC)C(=O)N[C@@H](C)C(N)=O (stereo partly drawn) [Ac-Trp-Met-Lys-Ile-Glu-Met-Ala-NH2]
- ring closure, conversion by HPLC ([2]; 24-membered ring): 77%

Compound: CSCC[C@H](NC(=O)[C@H](CC(=O)O)NC(=O)CNC(=O)[C@H](CCCNC(=N)N)NC(=O)[C@H](CC(=O)O)NC(=O)CNC(=O)[C@H](CCCNC(=N)N)NC(=O)[C@H](CC[S+](C)Cc1cccc(CBr)c1)NC(=O)[C@H](Cc1c[nH]c2ccccc12)NC(C)=O)C(N)=O (stereo partly drawn) [Ac-Trp-Met-Arg-Gly-Asp-Arg-Gly-Asp-Met-NH2]
- ring closure, conversion by HPLC ([2]; 33-membered ring): 85%

Compound: CSCC[C@H](NC(=O)[C@H](CCC(=O)O)NC(=O)[C@H](CCCCN)NC(=O)[C@H](CC[S+](C)Cc1cccc(CBr)c1)NC(=O)[C@H](Cc1c[nH]c2ccccc12)NC(C)=O)C(=O)N[C@@H](C)C(N)=O (stereo partly drawn) [Ac-Trp-Met-Lys-Glu-Met-Ala-NH2]
- ring closure, conversion by HPLC ([2]; 21-membered ring): 85%

Compound: FITC-βA-(cyclo-a)-MRRRM-NH2 (sidechain bridge or staple) [11a, peptide 11 cyclized using linker a]
- cellular uptake efficiency (flow cytometry) in the presence of serum (HeLa cells): same tendency as in the absence of serum

Compound: CSCC[C@H](NC(=O)[C@H](Cc1c[nH]cn1)NC(=O)[C@@H]1CCCN1C(=O)[C@H](CC[S+](C)Cc1ccc(CBr)cc1)NC(=O)[C@H](Cc1c[nH]c2ccccc12)NC(C)=O)C(=O)N[C@@H](C)C(N)=O (stereo partly drawn) [Ac-Trp-Met-Pro-His-Met-Ala-NH2]
- ring closure, conversion by HPLC ([1]; 22-membered ring): 74%

Compound: CSCC[C@H](NC(=O)[C@H](CC(=O)O)NC(=O)CNC(=O)[C@H](CCCNC(=N)N)NC(=O)[C@H](CC[S+](C)Cc1nc2ccccc2nc1CBr)NC(=O)[C@H](Cc1c[nH]c2ccccc12)NC(C)=O)C(N)=O (some centres unmarked)
- ring closure, conversion by HPLC ([3]; 23-membered ring): 53%
